Tests used:
[1] = retention and selective release of cargo from alginate-in-oil-in-alginate fibers; assay type: physicochemical
Source text: The concentration of alginate-PVA solution in the inner alginate compartment was kept the same as the alginate fiber. As for the cargos, 0.5% (v/v) 200 nm orange fluorescent particles (FluoSpheres, Invitrogen), 1% (w/v) FITC conjugated BSA, or 0.04% (v/v) of 190 nm Dragon Green fluorescent particles (Uniform Dyed Microspheres, Bangs Laboratories, Inc.) were mixed with the alginate solution. For water-based magnetic particles, 2% (v/v) of 1 μm-magnetic polystyrene particles were mixed in the alginate solution. Chemicals not indicated with vendors were purchased from Sigma-Aldrich.
Multicompartment fibers were collected as suspensions in DI water or wound between two rotating needles controlled by a motor (Barnant Motor Mixer, Model No. 700-5412). […] For selective dissolution of the cargos from the oil compartment of the fibers, ethanol (Reagent alcohol, BDH) was added to the fiber suspensions. The de-cross-linking agent, 160 mM sodium citrate (Na3C6H5O7, Sigma-Aldrich) in DI water was used as calcium chelator to degrade the alginate fiber or inner alginate particles.
As a model particle cargo, 200 nm fluorescent nanoparticles were added to the inner alginate particle to produce fluorescent core microfibers (FIG. 2, panel a, and FIG. 8, panel a).
As a non-limiting example, ethanol was used to affect oil phase removal. The oil phase, which was a solution of mineral oil, 5% (v/v) undecanol, and 2 wt % Span 80 surfactant, was slightly miscible with ethanol, and thus was able to slowly escape the oil microcompartments in the fiber in the presence of ethanol. Alginate-in-oil-in-alginate fibers were prepared with 0.3 mg·mL^−1 of a lipophilic fluorescent dye, Nile Red, in the oil droplets, and green fluorescent nanoparticles of 190 nm diameter in the inner alginate particles; one fiber sample was immersed in water, and the second fiber sample was immersed in an ethanol/water solution.

[2] = retention and release of dissolved compounds from hydrophobic PEG-DA droplet-in-fibers; assay type: physicochemical
Source text: FIG. 18 illustrates hydrophobic droplet-in-fibers wrapped around needles immersed in water. On the left, the fiber precursor solution contained 76 vol % PEG250DA, 20 vol % PEG700DA and 4 vol % photoinitiator. On the right, the fiber precursor solution contained 96 vol % PEG250DA and 4 vol % photoinitiator. Both fibers contained aqueous droplets with 1 wt % erioglaucine (blue dye).

[3] = dissolution of eugenol droplets embedded in the fiber in water; assay type: physicochemical; details: 100% eugenol droplets
Description: (§1) For the oil droplet compartment, mineral oil with 2 wt % Span 80 was used in general. For solidifying inner alginate droplets to prevent them from escaping the oil compartment, 5% (v/v) of calcium chloride-saturated undecanol was mixed with the oil solution. The concentrations of the cargos to be carried in the oil compartment were 0.3 mg·mL^−1 for Nile red, 0.8% (v/v) for magnetic particles in oil-phase (EMG 909, FerroTec), and 10 and 20% (v/v) for eugenol. […] The final concentration of undecanol in the oil solution was 5% (v/v). In the case of using just eugenol for the oil compartment, 2 wt % Span 80 was added to eugenol to form stable droplets.
The previously described experiments were conducted with mineral oil as the oil phase.

[4] = test system: Escherichia coli (E. Coli, S17-1λpir); assay: antibacterial effect of eugenol oil droplets on E. coli cells encapsulated in alginate fibers; assay type: cell-based
Source text: For the alginate fiber, 0.5-1 wt % sodium alginate (from brown algae) with 0.1-0.25 wt % poly(vinyl alcohol) (PVA; Molecular weight, 31,000-50,000) dissolved in DI water or PBS was used. PVA is a biocompatible polymer. Also, after collecting the fibers, they were rinsed with DI water or PBS, and stored in DI water to allow any water-soluble components in the fiber to be removed. […] For cell encapsulation, the alginate-PVA solution was filtered through 0.22 μm pore-sized filter prior to mixing with cells. The mammalian cells, NIH/3T3 mouse fibroblast cells (ATCC), were cultured in Dulbecco's modified Eagle medium (DMEM; ATCC) supplemented with 10% (v/v) calf bovine serum and 1% (v/v) penicillin. The cells were prepared to be 1-2×10^5 cells·mL^−1 in the final alginate solution. For encapsulating mammalian cells in the alginate fiber, a solution of 0.5 wt % alginate with 0.1 wt % PVA dissolved in PBS was used. The bacterial cells were Escherichia coli (E. Coli, S17-1λpir) that express green fluorescent protein (GFP) from a plasmid, induced by isopropyl β-D-1-thiogalactopyranoside (IPTG). More details on the cells, including plasmid construction, is recited in Drescher, et al., 2014, Curr. Biol. 24:50. The E. coli cells were prepared in the alginate solution to be 4-5×10^6 cells·mL^−1. For encapsulating bacterial cells, a solution of 1 wt % alginate with 0.25 wt % PVA dissolved in PBS was used.
as §1
Multicompartment fibers were collected as suspensions in DI water or wound between two rotating needles controlled by a motor (Barnant Motor Mixer, Model No. 700-5412). Fibers encapsulating the fibroblast cells were collected in DMEM supplemented with 10% calf bovine serum and 1% penicillin, and stored in the 5% CO2-humidified incubator at 37° C. To test the cell viability inside the multicompartment fibers, 2 μM of calcein AM and 4 μM of ethidium-homodimer-1 (EthD-1) from LIVE/DEAD Viability/Cytotoxicity kit for mammalian cells (Molecular Probes) were applied in the DMEM 1 hour prior to the observation under a fluorescent microscope. The cell viability was analyzed with the green (calcein AM) and red (EthD-1) fluorescence images using image analysis software, ImageJ (NIH). E. coli-encapsulated fibers were either collected in LB media containing 1 mM IPTG and 100 μg·mL^−1 Kanamycin (kanamycin sulfate; Fisher). For selective dissolution of the cargos from the oil compartment of the fibers, ethanol (Reagent alcohol, BDH) was added to the fiber suspensions. The de-cross-linking agent, 160 mM sodium citrate (Na3C6H5O7, Sigma-Aldrich) in DI water was used as calcium chelator to degrade the alginate fiber or inner alginate particles.
The growth of bacterial cells, Escherichia coli (E. coli), in the oil droplet-in-alginate fibers (FIG. 2, panel d) was also tested. The E. coli cells encapsulated in the fibers were suspended in the LB medium for 21 hours, and grew well inside the fibers where they completely surrounded the oil droplets (FIG. 9). The oil microcompartments of the fiber can be used to encapsulate hydrophobic drugs or antibacterial chemicals to test their effects on the cells. For example, eugenol is an antibacterial compound found in clove oil. Eugenol was dissolved in the oil compartment, in a solution comprising mineral oil with 5% (v/v) undecanol and 2 wt % Span 80. […]

CCN(CC)c1ccc2nc3c4ccccc4c(=O)cc-3oc2c1 [Nile Red]
red fluorescence in the fibers ([1]; ethanol/water solution, after a longer time): no further red fluorescence was observed in the fibers
red fluorescence in the oil microcompartments ([1]; fiber immersed over 18 hours in water): red fluorescence of the Nile Red dye in the oil microcompartments was observed

CCN(Cc1cccc(S(=O)(=O)[O-])c1)c1ccc(C(=C2C=CC(=[N+](CC)Cc3cccc(S(=O)(=O)[O-])c3)C=C2)c2ccccc2S(=O)(=O)[O-])cc1.[Na+].[Na+] [erioglaucine]
retention of dissolved compound in aqueous droplets ([2]; PEG-DA (MW=250 g/mol) fiber with 4 vol % photoinitiator): remained within the aqueous compartments
release of dye from fiber ([2]; fiber precursor 76 vol % PEG250DA, 20 vol % PEG700DA, 4 vol % photoinitiator, immersed in water): allowed the blue dye to diffuse out of the fiber

C=CCc1ccc(O)c(OC)c1 [eugenol]
diameter of eugenol droplets embedded in the fiber after dissolution ([3]; over a period of 2 hours): 50 μm
diameter of eugenol droplets embedded in the fiber, initial ([3]; start): 120 μm
growth of E. coli around the oil droplets ([4]; 20% (v/v) eugenol droplets, after 3 hours): slowed down around the oil droplets
growth of E. coli around the rim of the droplets ([4]; 20% (v/v) eugenol droplets, after 15 hours): no growth was observed around the rim of the droplets
cell population around the oil droplets ([4]; 20% (v/v) eugenol-oil droplets): significant decrease in the cell population around the oil droplets
cell growth around the eugenol droplets compared with oil droplets with no eugenol ([4]; eugenol up to 10% (v/v) in oil droplets): no significant difference in the cell growth
overall growth rate of E. coli inside the fiber ([4]; eugenol up to 10% (v/v) in oil droplets, qualitative): reduction in the overall growth rate of E. coli
growth of GFP-expressing E. coli in fiber ([4]; up to 10% (v/v) eugenol droplets, after 15 hours): grew around the oil droplets and covered most of the fibers completely

fluorescein isothiocyanate (FITC) conjugated bovine serum albumin [FITC-conjugated BSA]
time over which fluorescence of encapsulated cargo was observed ([1]; in inner alginate particle, fiber stored in DI water): at least 20 hours
